Measured values taken from patent US20060167020A1, “Pyrazolopyrimidines as kinase inhibitors” (priority 2002, published 2006).
Structures can show the parent of a compound that is named as a salt.

target: GSK-3β (Homo sapiens, UniProt P49841); assay: GSK3 kinase scintillation proximity assay (phosphorylation of biotinylated glycogen synthase peptide); assay type: biochemical; settings: 20 nM kinase, 2.5 uM ATP, 2.8 uM peptide substrate, 40 minutes at room temperature; pIC50 = -log IC50 in Molar
Excerpt: The phosphorylated biotinylated peptide is then captured onto streptavidin coated scintillation proximity assay (SPA) beads from Amersham Technology, where the signal from the ^33P is amplified via the scintillant contained in the beads.
GSK-3β is commercially available or may be cloned and expressed in E coli using standard techniques to produce soluble, active protein. The production of active protein involves purification in two steps using Metal Chelate and Ion Exchange Chromatography. Protein eluting from Ion Exchange provides >90% pure product that may then be concentrated for use in high throughput screening.
The kinase was assayed at a concentration of 20 nM final in 100 mM HEPES, pH 7.2 containing 10 mM magnesium chloride, 0.1 mg/mL bovine serum albumin, 1 mM dithiothreitol, 0.3 mg/mL heparin, 2.8 uM peptide substrate, 2.5 uM ATP, and 0.2 uCi/well γ^33P]-ATP. After 40 minutes incubation at room temperature, the reaction was stopped by addition of 100 mM EDTA and […] in 100 mM HEPES, pH7.2 followed by an additional solution of diluted Streptavidin coated SPA beads in PBS, pH 7.2 to give a final concentration of 0.25 mg of beads per assay well in a 96-well microtiter plate.
10 mM stock solutions of the compounds of the invention in 100% DMSO are generated as a first step in the screening process. The second step involves the creation of dose response plates where these compounds are diluted 10-fold in 100% DMSO to 1 mM concentrations and subsequently serially diluted 3-fold in 100% DMSO across the plate by automated liquid handling such that the final top concentration of inhibitor is 0.033 mM in the 30 uL kinase assay. The third step involves the creation of the assay plates. This is achieved by transferring 1 uL of the compounds to assay plates by automated liquid handling. The fourth step is to perform the assay as described and count the resulting plates in the Packard TopCount NXT microplate scintillation and luminescence counter.
The final step is data acquisition and analysis where IC50 values are generated for each compound by normalizing curve data to the equation 100*(U1−C2)/(C1−C2) (where U1 is the cpm value, C2 is the background, and C1 is the maximum number of counts), then fitting the normalized data to the equation y=Vmax*(1−(x/(K+x))). The IC50 values were converted to pIC50 values, i.e., −log IC50 in Molar concentration. The data is expressed below in Table 1.

GSK-3β, sequence (P49841 whole entry, species assumed): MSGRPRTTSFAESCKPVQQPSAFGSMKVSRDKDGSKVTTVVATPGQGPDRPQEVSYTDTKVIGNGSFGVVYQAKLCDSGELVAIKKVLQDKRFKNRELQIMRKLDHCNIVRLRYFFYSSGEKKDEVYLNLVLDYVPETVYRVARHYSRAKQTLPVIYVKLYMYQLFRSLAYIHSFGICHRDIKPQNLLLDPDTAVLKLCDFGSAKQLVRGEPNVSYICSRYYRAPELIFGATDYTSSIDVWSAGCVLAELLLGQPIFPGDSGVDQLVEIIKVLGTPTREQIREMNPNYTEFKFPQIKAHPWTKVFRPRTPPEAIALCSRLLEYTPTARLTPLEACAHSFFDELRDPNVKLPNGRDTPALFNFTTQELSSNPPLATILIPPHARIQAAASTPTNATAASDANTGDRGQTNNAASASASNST

Structure (SMILES)	IC50 [nM]
COc1cccc(-n2ncc3c(N/N=C/c4ccncc4)ncnc32)n1 [Example 1, Isonicotinaldehyde [1-(6-methoxypyridin-2-yl)-1H-pyrazolo[3,4-d]pyrimidin-4-yl]hydrazone]	< 100
COc1cccc(-n2ncc3c(N/N=C/c4cccnc4)ncnc32)n1 [Example 2, Nicotinaldehyde [1-(6-methoxypyridin-2-yl)-1H-pyrazolo[3,4-d]pyrimidin-4-yl]hydrazone]	< 100
COc1cccc(-n2ncc3c(N/N=C/c4ccc(N(C)C)nc4)ncnc32)n1 [Example 3, 6-(Dimethylamino)nicotinaldehyde [1-(6-methoxypyridin-2-yl)-1H-pyrazolo[3,4-d]pyrimidin-4-yl]hydrazone]	100 to 1000
COc1cccc(-n2ncc3c(N/N=C/c4ccnc(Cl)c4)ncnc32)n1 [Example 4, 2-Chloroisonicotin aldehyde [1-(6-methoxypyridin-2-yl)-1H-pyrazolo[3,4-d]pyrimidin-4-yl]hydrazone]	100 to 1000
COc1cccc(-n2ncc3c(N/N=C/c4ccc(Cl)nc4)ncnc32)n1 [Example 5, 6-Chloronicotinaldehyde [1-(6-methoxypyridin-2-yl)-1H-pyrazolo[3,4-d]pyrimidin-4-yl]hydrazone]	< 100
COc1cccc(-n2ncc3c(N/N=C/c4ccc(S(=O)(=O)NCCN(C)C)cc4)ncnc32)n1 [Example 6, N-[2-(Dimethylamino)ethyl]-4-((E)-{[1-(6-methoxypyridin-2-yl)-1H-pyrazolo[3,4-d]pyrimidin-4-yl]hydrazono}methyl)benzenesulfonamide]	< 100
COc1cccc(-n2ncc3c(N/N=C/c4ccc(S(=O)(=O)NCCN5CCOCC5)cc4)ncnc32)n1 [Example 7, 4-((E)-{[1-(6-methoxypyridin-2-yl)-1H-pyrazolo[3,4-]pyrimidin-4-yl]hydrazono}methyl)-N-(2-morpholin-4-ylethyl)benzenesulfonamide]	< 100
COc1cccc(-n2ncc3c(N/N=C/c4ccc(C(=O)O)cc4)ncnc32)n1 [Example 8]	100 to 1000
COc1cccc(-n2ncc3c(N/N=C/c4ccc(C(=O)NCCS(C)(=O)=O)cc4)ncnc32)n1 [Example 9, 4-((E)-{[1-(6-methoxypyridin-2-yl)-1H-pyrazolo[3,4-d]pyrimidin-4-yl]hydrazono}methyl)-N-[2-(methylsulfonyl)ethyl]benzamide]	< 100
COc1cccc(-n2ncc3c(N/N=C/c4ccc(C(=O)NCCN(C)C)cc4)ncnc32)n1 [Example 10, N[2-(Dimethylamino)ethyl]-4-((E)-{[1-(6-methoxypyridin-2-yl)-1H-pyrazolo[3,4-d]pyrimidin-4-yl]hydrazono}methyl)benzamide]	< 100
COc1cccc(-n2ncc3c(N/N=C/c4ccc(C(=O)NCCCN(C)C)cc4)ncnc32)n1 [Example 11, N-[3-(Dimethylamino)propyl]-4-((E)-{[1-(6-methoxypyridin-2-yl)-1H-pyrazolo[3,4-a]pyrimidin-4-yl]hydrazono}methyl)benzamide]	< 100
COc1cccc(-n2ncc3c(N/N=C/c4ccc(C(=O)NCCCN5CCCC5)cc4)ncnc32)n1 [Example 12, 4-((E)-{[1-(6-methoxypyridin-2-yl)-1H-pyrazolo[3,4-d]pyrimidin-4-yl]hydrazono}methyl)-N-(3-pyrrolidin-1-ylpropyl)benzamide]	< 100
C(=N\Nc1ncnc2c1cnn2-c1ccccn1)/c1cccnc1 [Example 13, Nicotinaldehyde (1-pyridin-2-yl-1H-pyrazolo[3,4-d]pyrimidin-4-yl)hydrazone]	100 to 1000
C(=N\Nc1ncnc2c1cnn2-c1ccccn1)/c1ccncc1 [Example 14, Isonicotinaldehyde (1-pyridin-2-yl-1H-pyrazolo[3,4-d]pyrimidin-4-yl)hydrazone]	1000 to 10000
CC(C)(C)OC(=O)N1CCC(/C=N/Nc2ncnc3c2cnn3-c2ccccn2)CC1 [Example 15, tert-Butyl 4-{(E)-[(1-pyridin-2-yl-1H-pyrazolo[3,4-d]pyrimidin-4-yl)hydrazono]methyl}piperidine-1-carboxylate]	1000 to 10000
Nc1ccc(/C=N/Nc2ncnc3c2cnn3-c2ccccn2)cn1 [Example 17, 6-Aminonicotinaldehyde (1-pyridin-2-yl-1H-pyrazolo[3,4-d]pyrimidin-4-yl)hydrazone trifluoroacetate]	1000 to 10000
CN(C)c1ccc(/C=N/Nc2ncnc3c2cnn3-c2ccccn2)cn1 [Example 18, 6-(Dimethylamino)nicotinaldehyde (1-pyridin-2-yl-1H-pyrazolo[3,4-d]pyrimidin-4-yl)hydrazone]	1000 to 10000

Now from value to compound:

IC50 [nM]	Structure (SMILES)
100 to 1000	CN(C)CCNS(=O)(=O)c1ccc(/C=N/Nc2ncnc3c2cnn3-c2ccccn2)cc1 [Example 19, N-[2-(Dimethylamino)ethyl]-4-{(E)-[(1-pyridin-2-yl-1H-pyrazolo[3,4-d]pyrimidin-4-yl)hydrazono]methyl}benzenesulfonamide]
1000 to 10000	O=C(O)c1ccc(/C=N/Nc2ncnc3c2cnn3-c2ccccn2)cc1 [Example 20, 4-{(E)-[(1-pyridin-2-yl-1H-pyrazolo[3,4-d]pyrimidin-4-yl)hydrazono]methyl}benzoic acid]
100 to 1000	CN(C)CCNC(=O)c1ccc(/C=N/Nc2ncnc3c2cnn3-c2ccccn2)cc1 [Example 21, N-[2-(Dimethylamino)ethyl]-4-{(E)-[(1-pyridin-2-yl-1H-pyrazolo[3,4-d]pyrimidin-4-yl)hydrazono]methyl}benzamide hydrochloride]
100 to 1000	CS(=O)(=O)CCNC(=O)c1ccc(/C=N/Nc2ncnc3c2cnn3-c2ccccn2)cc1 [Example 22, N-[2-(Methylsulfonyl)ethyl]-4-{(E)-[(1-pyridin-2-yl-1H-pyrazolo[3,4-d]pyrimidin-4-yl)hydrazono]methyl}benzamide]
100 to 1000	C(=NNc1ncnc2c1cnn2-c1nccs1)c1cccnc1 [Example 23, Nicotinaldehyde [1-(1,3-thiazol-2-yl)-1H-pyrazolo[3,4-d]pyrimidin-4-yl]hydrazone]
< 100	C(=NNc1ncnc2c1cnn2-c1nccs1)c1ccncc1 [Example 24, Isonicotinaldehyde [1-(1,3-thiazol-2-yl)-1H-pyrazolo[3,4-d]pyrimidin-4-yl]hydrazone]
< 100	CN(C)CCNS(=O)(=O)c1ccc(/C=N/Nc2ncnc3c2cnn3-c2nccs2)cc1 [Example 25, N-[2-(Dimethylamino)ethyl]-4-((E)-{[1-(1,3-thiazol-2-yl)-1H-pyrazolo[3,4-a]pyrimidin-4-yl]hydrazonol}methyl)benzenesulfonamide]
< 100	C(=N\Nc1ncnc2c1cnn2-c1ccncc1)/c1ccncc1 [Example 26, Isonicotinaldehyde (1-pyridin-4-yl-1H-pyrazolo[3,4-d]pyrimidin-4-yl)hydrazone]
< 100	C(=NNc1ncnc2c1cnn2-c1cccc2[nH]cnc12)c1ccncc1 [Example 28, Isonicotinaldehyde [1-(1H-benzimidazol-4-yl)-1H-pyrazolo[3,4-d]pyrimidin-4-yl]hydrazone]
< 100	Fc1ccc(/C=N/Nc2ncnc3c2cnn3-c2cccc3[nH]cnc23)cc1 [Example 29, 4-Fluorobenzaldehyde [1-(1H-benzimidazol-4-yl)-1H-pyrazolo[3,4-d]pyrimidin-4-yl]hydrazone]
< 100	CS(=O)(=O)c1ccc(/C=N/Nc2ncnc3c2cnn3-c2cccc3[nH]cnc23)cc1 [Example 30, 4-(Methylsulfonyl)benzaldehyde [1-(1H-benzimidazol-4-yl)-1H-pyrazolo[3,4-d]pyrimidin-4-yl]hydrazone]
< 100	O=C(O)c1ccc(/C=N/Nc2ncnc3c2cnn3-c2cccc3[nH]cnc23)cc1 [Example 31, 4-((E)-{[1-(1H-benzimidazol-4-yl)-1H-pyrazolo[3,4-d]pyrimidin-4-yl]hydrazono}methyl)benzoic acid]
< 100	CN(C)CCCNC(=O)c1ccc(/C=N/Nc2ncnc3c2cnn3-c2cccc3[nH]cnc23)cc1 [Example 32, 4-((E)-{[1-(1H-benzimidazol-4-yl)-1H-pyrazolo[3,4-d]pyrimidin-4-yl]hydrazono}methyl)-N-[3-(dimethylamino)propyl]benzamide]
< 100	Fc1ccc(/C=N/Nc2ncnc3c2cnn3-c2cccnc2)cc1 [Example 33, 4-Fluorobenzaldehyde (1-pyridin-3-yl-1H-pyrazolo[3,4-d]pyrimidin-4-yl)hydrazone]
